Assay results taken from patent publication US7146277B2, “NMR assisted design of high affinity ligands for structurally uncharacterized proteins” (priority 2000, dated 2006).

Columns and labels:
[1] = target: T1, GnT-V (Homo sapiens, UniProt Q09328); conditions: cited from earlier work; for Kd: GnT-V, known binding constant
T1 construct: The soluble form of recombinant human GnT-V was expressed in CHO cells; made in house; host or cells: CHO cells
T1 sequence (Q09328 31-741 limits assumed): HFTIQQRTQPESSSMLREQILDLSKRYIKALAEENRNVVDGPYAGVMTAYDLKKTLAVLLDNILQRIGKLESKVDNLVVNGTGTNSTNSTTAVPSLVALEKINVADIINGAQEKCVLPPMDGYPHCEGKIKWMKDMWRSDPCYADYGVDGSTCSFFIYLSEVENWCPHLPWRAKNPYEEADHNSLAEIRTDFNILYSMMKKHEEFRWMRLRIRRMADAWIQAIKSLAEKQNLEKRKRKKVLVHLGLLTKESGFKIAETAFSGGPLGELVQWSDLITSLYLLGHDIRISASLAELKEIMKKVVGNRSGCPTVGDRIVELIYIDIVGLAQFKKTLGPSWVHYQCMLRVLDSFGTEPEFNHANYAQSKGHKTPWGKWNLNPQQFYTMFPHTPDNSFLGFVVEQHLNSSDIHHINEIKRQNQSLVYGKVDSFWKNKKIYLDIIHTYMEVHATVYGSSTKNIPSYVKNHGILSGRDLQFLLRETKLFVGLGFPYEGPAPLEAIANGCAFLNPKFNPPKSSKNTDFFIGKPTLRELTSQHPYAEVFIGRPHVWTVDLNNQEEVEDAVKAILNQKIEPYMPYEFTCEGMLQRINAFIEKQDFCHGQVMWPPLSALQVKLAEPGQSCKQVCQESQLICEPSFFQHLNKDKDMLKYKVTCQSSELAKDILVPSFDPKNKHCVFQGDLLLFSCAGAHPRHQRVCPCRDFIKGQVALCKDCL

[2] = target: T2, mannose-binding protein (MBP) (Rattus norvegicus, UniProt P19999); assay: Binding of AMM to mannose-binding protein (previously determined binding constant, used for the bound fraction); conditions: 1 mM MBP-A, 1 mM AMM; calculated from dissociation constant and concentrations
T2 construct: made in house; host or cells: E. coli JA221
Source text: Interpretation of residual dipolar contributions of a ligand in a protein-bound state will, in general, require separation of the contribution from the free state using known binding properties. The observed residual dipolar couplings measured in the AMM/MBP complex (Table 2, Dobs) will be a population weighted average from the free (Nfree) and bound (Nbound) states, such that: Dobs=NfreeDfree+NboundDbound (1) The fraction of AMM free and bound (Nfree and Nbound) can be calculated from the dissociation constant and known protein-ligand concentrations. Using a previously determined binding constant (approx. 1 mM) approximately 40% of AMM is in fact bound to MBP leaving approximately 60% of AMM free in solution. Order Tensor Calculation in AMM

[3] = target: T2, mannose-binding protein (MBP); conditions: AMM/MBP, previously determined; read-out: binding constant; cited from earlier work

Structure (SMILES) | Kd [1] [mM] | fraction of AMM bound to MBP [2] | Kd [3] [mM] | type of inhibition of GnT-V [1]
CC(=O)N[C@H]1[C@@H](OP(=O)(O)OP(=O)(O)OC[C@H]2O[C@@H](n3ccc(=O)[nH]c3=O)[C@H](O)[C@@H]2O)O[C@H](CO)[C@@H](O)[C@@H]1O [UDP-GlcNAc] | 1.1 | – | – | –
COC1O[C@H](CO)[C@@H](O)[C@H](O)[C@@H]1O (stereo partly drawn) [AMM, α-methyl mannoside] | – | approximately 40% | ~1 | –
O=c1ccn([C@@H]2O[C@H](COP(=O)(O)OP(=O)(O)O)[C@@H](O)[C@H]2O)c(=O)[nH]1 [UDP, uridine diphosphate] | 1.1 | – | – | competitive inhibitor
